Results on 21 molecules are retold here after patent publication US20190367516A1 (Bayer Pharma Aktiengesellschaft, priority 2015, published 2019).

Usually EC50 stands for the midpoint of the concentration-response curve.

Like-named read-outs stand apart in the source and are kept apart here.

Assay [1] has as its target T1, human M2 receptor (Homo sapiens, UniProt P08172).
T1 sequence (P08172 1-466): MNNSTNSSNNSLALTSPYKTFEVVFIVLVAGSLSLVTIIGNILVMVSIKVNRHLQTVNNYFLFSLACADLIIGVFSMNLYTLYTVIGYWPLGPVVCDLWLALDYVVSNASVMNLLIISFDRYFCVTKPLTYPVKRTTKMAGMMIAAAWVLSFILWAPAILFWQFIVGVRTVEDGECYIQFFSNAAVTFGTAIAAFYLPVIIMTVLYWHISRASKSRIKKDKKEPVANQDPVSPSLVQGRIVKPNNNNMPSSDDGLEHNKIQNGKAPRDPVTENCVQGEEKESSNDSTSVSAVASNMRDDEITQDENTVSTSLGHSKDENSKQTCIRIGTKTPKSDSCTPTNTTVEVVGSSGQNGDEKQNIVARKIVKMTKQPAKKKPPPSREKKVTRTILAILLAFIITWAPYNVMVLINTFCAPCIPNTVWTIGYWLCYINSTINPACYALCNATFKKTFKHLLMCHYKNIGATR
To be noted: for Emax: read-out: Efficiency, boosting of the acetylcholine effect at EC20 acetylcholine concentration.

The target in assay [2] is T1, human M2 receptor. The assay is classed as cell-based. The note with it: α >1 = positive cooperativity.
Where [3] appears, read: Receptor activity EC50, M2-GIRK1/4 activation test, acetylcholine at EC20, allosteric potency, in some cases mean values from two or more determinations.
[4] abbreviates: shift in the acetylcholine dose-response curve (Allosteric EC50 shift, GraphPad PRISM).
Where [5] appears, read: Receptor activity EC50, allosteric potency at EC20 acetylcholine, M2-GIRK1/4 reporter cells, in some cases mean of two or more determinations.
Where [6] appears, read: shift of acetylcholine dose-response curve (Allosteric EC50 shift).

Turning to `CCC(NC(=O)c1cn(-c2ccc(F)cc2F)c2nc(N3CCN(C(=O)OC)CC3)ccc2c1=O)C(F)(F)F` (racemic) [Example 23, rac-Methyl 4-{8-(2,4-difluorophenyl)-5-oxo-6-[(1,1,1-trifluorobutan-2-yl)carbamoyl]-5,8-dihydro-1,8-naphthyridin-2-yl}piperazine-1-carboxylate], the concentration giving a half-maximal response (EC50) on human M2 receptor [1] (setting [3]) was found to be 0.096 µM. For the same molecule, at human M2 receptor [2] (setting [4]), the “Cooperativity (alpha factor)” value came out at 20.

With `CC[C@@H](NC(=O)c1cn(-c2ccc(F)cc2F)c2nc(N3CC(O)C3)ccc2c1=O)C(F)(F)F` [Example 261, 1-(2,4-Difluorophenyl)-7-(3-hydroxyazetidin-1-yl)-4-oxo-N-[(2R)-1,1,1-trifluorobutan-2-yl]-1,4-dihydro-1,8-naphthyridine-3-carboxamide], on human M2 receptor [1] (setting [3]), the EC50 was found to be 0.075 µM. Also, the “Cooperativity (alpha factor)” value on human M2 receptor [2] (setting [4]) stood at 13.

At human M2 receptor [1] (setting [3]), `O=C(NC12CC(C1)C2)c1cn(-c2c(F)cc(F)cc2F)c2nc(N3C[C@@H](O)[C@H](O)C3)ccc2c1=O` [Example 366, N-(Bicyclo[1.1.1]pent-1-yl)-7-[(3R,4R)-3,4-dihydroxypyrrolidin-1-yl]-4-oxo-1-(2,4,6-trifluorophenyl)-1,4-dihydro-1,8-naphthyridine-3-carboxamide] returned an EC50 of 0.035 µM. The “Cooperativity (alpha factor)” value at human M2 receptor [2] (setting [4]) was 36.

As to `CC[C@@H](COC(F)(F)F)NC(=O)c1cn(-c2c(F)cc(F)cc2F)c2nc(N3C[C@@H](C)NC3=O)ccc2c1=O` (single isomer, unassigned) [Example 454], at human M2 receptor [1] (setting [5]), the response was half-maximal at 0.007 µM (EC50). Also, the Emax on human M2 receptor [1] (M2-GIRK1/4 reporter cells) worked out at 100%. Besides, on human M2 receptor [2] (setting [6]), the “Cooperativity (alpha factor)” value was 28.

As for `O=C(NC(c1c(F)cccc1F)C(F)(F)F)c1cn(-c2ccc(F)cc2F)c2nc(N3CC[C@H](F)C3)ccc2c1=O` (mixture of isomers) [Example 241, 1-(2,4-Difluorophenyl)-N-[1-(2,6-difluorophenyl)-2,2,2-trifluoroethyl]-7-[(3S)-3-fluoropyrrolidin-1-yl]-4-oxo-1,4-dihydro-1,8-naphthyridine-3-carboxamide], the EC50 on human M2 receptor [1] (setting [3]) came out at 0.021 µM. Moreover, the “Cooperativity (alpha factor)” value on human M2 receptor [2] (setting [4]) is on record as 18.

Molecule `O=C(NC(C(F)(F)F)C(F)(F)F)c1cn(-c2ccc(F)cc2F)c2nc(NCCF)ccc2c1=O` [Example 89, 1-(2,4-Difluorophenyl)-7-[(2-fluoroethyl)amino]-N-(1,1,1,3,3,3-hexafluoropropan-2-yl)-4-oxo-1,4-dihydro-1,8-naphthyridine-3-carboxamide] came in with an EC50 on human M2 receptor [1] (setting [3]) of 0.413 µM. Also, the “Cooperativity (alpha factor)” value at human M2 receptor [2] (setting [4]) is 20.

In the case of `CN(C)c1ccc2c(=O)c(C(=O)NC34CC5CC(F)(CC(F)(C5)C3)C4)cn(-c3ccc(F)cc3F)c2n1` [Example 38, 1-(2,4-Difluorophenyl)-N-(3,5-difluorotricyclo[3.3.1.1^3,7]dec-1-yl)-7-(dimethylamino)-4-oxo-1,4-dihydro-1,8-naphthyridine-3-carboxamide], at human M2 receptor [1] (setting [3]), the EC50 is 0.041 µM. Also, the “Cooperativity (alpha factor)” value on human M2 receptor [2] (setting [4]) was 14.

For the molecule `CC[C@@H](NC(=O)c1cn(-c2c(F)cccc2F)c2nc(N3CCC(C)(O)C3)ccc2c1=O)C(F)(F)F` (mixture of isomers) [Example 276, 1-(2,6-Difluorophenyl)-7-[3-hydroxy-3-methylpyrrolidin-1-yl]-4-oxo-N-[(2R)-1,1,1-trifluorobutan-2-yl]-1,4-dihydro-1,8-naphthyridine-3-carboxamide], the EC50 at human M2 receptor [1] (setting [3]) was 0.08 µM. Moreover, the “Cooperativity (alpha factor)” value at human M2 receptor [2] (setting [4]) is on record as 28.

The molecule `CCC(NC(=O)c1cn(-c2c(F)cc(F)cc2F)c2nc(N3C[C@@H](O)CC3=O)ccc2c1=O)C(F)(F)C(F)(F)F` (single isomer, unassigned) [Example 521] returned an Efficiency at human M2 receptor [1] (boosting of the acetylcholine effect at EC20 acetylcholine concentration, M2-GIRK1/4 reporter cells) of 100.0%. In addition, the concentration for a half-maximal effect (EC50) on human M2 receptor [1] (read-out: Receptor activity EC50, allosteric potency at EC20 acetylcholine, M2-GIRK1/4 reporter cells, in some cases mean of two or more determinations) amounted to 0.002 µM. In addition, at human M2 receptor [2] (setting [6]), the “Cooperativity (alpha factor)” value was 72.

`C[C@H](NC(=O)c1cn(-c2c(F)cccc2F)c2nc(N3CC4CC4(O)C3)ccc2c1=O)C(F)(F)F` (mixture of isomers) [Example 311, 1-(2,6-Difluorophenyl)-7-[1-hydroxy-3-azabicyclo[3.1.0]hex-3-yl]-4-oxo-N-[(2S)-1,1,1-trifluoropropan-2-yl]-1,4-dihydro-1,8-naphthyridine-3-carboxamide] had an EC50 at human M2 receptor [1] (setting [3]) of 0.025 µM. Besides, the “Cooperativity (alpha factor)” value on human M2 receptor [2] (setting [4]) worked out at 20.

`CC[C@@H](NC(=O)c1cn(-c2c(F)cccc2F)c2nc(N3CCC(O)C3=O)ccc2c1=O)C(F)(F)F` (single isomer, unassigned) [Example 294] displayed an EC50 at human M2 receptor [1] (setting [3]) of 0.065 µM. In addition, the “Cooperativity (alpha factor)” value on human M2 receptor [2] (setting [4]) stood at 31.

`O=C(N[C@@H](C1CC1)C(F)(F)F)c1cn(-c2c(F)cc(F)cc2Cl)c2nc(N3C[C@@H](O)CC3=O)ccc2c1=O` [Example 338, 1-(2-Chloro-4,6-difluorophenyl)-N-[(1 S)-1-cyclopropyl-2,2,2-trifluoroethyl]-7-[(4S)-4-hydroxy-2-oxopyrrolidin-1-yl]-4-oxo-1,4-dihydro-1,8-naphthyridine-3-carboxamide] yielded an EC50 on human M2 receptor [1] (setting [3]) of 0.007 µM. Further, the “Cooperativity (alpha factor)” value on human M2 receptor [2] (setting [4]) came out at 24.

At human M2 receptor [1] (setting [3]), `CC[C@@H](NC(=O)c1cn(-c2ccc(F)cc2F)c2nc(N3CC(C)CC3=O)ccc2c1=O)C(F)(F)F` (mixture of isomers) [Example 301, 1-(2,4-Difluorophenyl)-7-[4-methyl-2-oxopyrrolidin-1-yl]-4-oxo-N-[(2R)-1,1,1-trifluorobutan-2-yl]-1,4-dihydro-1,8-naphthyridine-3-carboxamide] gave an EC50 of 0.03 µM. At human M2 receptor [2] (setting [4]), the “Cooperativity (alpha factor)” value was 12.

For `C[C@H](O)CN(C)c1ccc2c(=O)c(C(=O)N[C@@H](C3CC3)C(F)(F)F)cn(-c3c(F)cc(F)cc3F)c2n1` [Example 493], the EC50 on human M2 receptor [1] (setting [5]) worked out at 0.016 µM. Besides, the Emax on human M2 receptor [1] (M2-GIRK1/4 reporter cells) came out at 94.5%. The “Cooperativity (alpha factor)” value at human M2 receptor [2] (setting [6]) was 14.

On to `C[C@H](NC(=O)c1cn(-c2c(F)cc(F)cc2Cl)c2nc(N3CCC(C)(C)C3=O)ccc2c1=O)C(F)(F)F` [Example 335, 1-(2-Chloro-4,6-difluorophenyl)-7-(3,3-dimethyl-2-oxopyrrolidin-1-yl)-4-oxo-N-[(2S)-1,1,1-trifluoropropan-2-yl]-1,4-dihydro-1,8-naphthyridine-3-carboxamide], for which, on human M2 receptor [1] (setting [3]), the midpoint of the response, the EC50, lay at 0.023 µM. For the same molecule, the “Cooperativity (alpha factor)” value on human M2 receptor [2] (setting [4]) is given as 7.

The molecule `CC[C@H](NC(=O)c1cn(-c2c(F)cc(F)cc2Cl)c2nc(N3CCC(C)C3=O)ccc2c1=O)C(F)(F)F` (mixture of isomers) [Example 422, 1-(2-Chloro-4,6-difluorophenyl)-7-[3-methyl-2-oxopyrrolidin-1-yl]-4-oxo-N-[(2S)-1,1,1-trifluorobutan-2-yl]-1,4-dihydro-1,8-naphthyridine-3-carboxamide] registered an EC50 at human M2 receptor [1] (setting [5]) of 0.006 µM. For the same molecule, the Emax at human M2 receptor [1] (M2-GIRK1/4 reporter cells) was 79%. Further, at human M2 receptor [2] (setting [6]), the “Cooperativity (alpha factor)” value was 16.

Molecule `CC[C@H](NC(=O)c1cn(-c2c(F)cc(F)cc2Cl)c2nc(N3CCNC3=O)ccc2c1=O)C(F)(F)F` [Example 340, 1-(2-Chloro-4,6-difluorophenyl)-4-oxo-7-(2-oxoimidazolidin-1-yl)-N-[(2S)-1,1,1-trifluorobutan-2-yl]-1,4-dihydro-1,8-naphthyridine-3-carboxamide] yielded an EC50 at human M2 receptor [1] (setting [3]) of 0.01 µM. Further, the “Cooperativity (alpha factor)” value on human M2 receptor [2] (setting [4]) was 22.

Molecule `O=C(NC(C1CC1)C(F)(F)F)c1cn(-c2c(F)cccc2F)c2nc(N3C[C@@H](O)CC3=O)ccc2c1=O` (mixture of isomers) [Example 295, N-[1-Cyclopropyl-2,2,2-trifluoroethyl]-1-(2,6-difluorophenyl)-7-[(4S)-4-hydroxy-2-oxopyrrolidin-1-yl]-4-oxo-1,4-dihydro-1,8-naphthyridine-3-carboxamide] gave an EC50 on human M2 receptor [1] (setting [3]) of 0.021 µM. For the same molecule, on human M2 receptor [2] (setting [4]), the “Cooperativity (alpha factor)” value is reported as 71.

On human M2 receptor [1] (setting [3]), `O=C(NC12CC3CC(CC(C3)C1)C2)c1cn(-c2ccc(F)cc2F)c2nc(N3CCC(O)(O)[C@H](F)C3)ccc2c1=O` [Example 7, 1-(2,4-Difluorophenyl)-7-[(3R)-3-fluoro-4,4-dihydroxypiperidin-1-yl]-4-oxo-N-(tricyclo[3.3.1.1^3,7]dec-1-yl)-1,4-dihydro-1,8-naphthyridine-3-carboxamide] returned a 50% effective concentration (EC50) of 0.034 µM. The “Cooperativity (alpha factor)” value on human M2 receptor [2] (setting [4]) came out at 34.

On human M2 receptor [1] (setting [3]), `CC[C@@H](NC(=O)c1cn(-c2ccc(F)cc2F)c2nc(NCCF)ccc2c1=O)C(F)(F)F` [Example 27, 1-(2,4-Difluorophenyl)-7-[(2-fluoroethyl)amino]-4-oxo-N-[(2R)-1,1,1-trifluorobutan-2-yl]-1,4-dihydro-1,8-naphthyridine-3-carboxamide] returned a concentration giving a half-maximal response (EC50) of 0.089 µM. Also, the “Cooperativity (alpha factor)” value on human M2 receptor [2] (setting [4]) is listed as 20.

For `CCC(NC(=O)c1cn(-c2ccc(F)cc2F)c2nc(NCCF)ccc2c1=O)C(F)(F)F` (racemic) [Example 85, rac-1-(2,4-Difluorophenyl)-7-[(2-fluoroethyl)amino]-4-oxo-N-[1,1,1-trifluorobutan-2-yl]-1,4-dihydro-1,8-naphthyridine-3-carboxamide], the response at human M2 receptor [1] (setting [3]) was half-maximal at 0.118 µM (EC50). Moreover, on human M2 receptor [2] (setting [4]), the “Cooperativity (alpha factor)” value was found to be 26.
